Target: T1, human FXR (Homo sapiens, UniProt Q96RI1)
T1 construct: expressed in transfected cells
T1 sequence (Q96RI1 1-486): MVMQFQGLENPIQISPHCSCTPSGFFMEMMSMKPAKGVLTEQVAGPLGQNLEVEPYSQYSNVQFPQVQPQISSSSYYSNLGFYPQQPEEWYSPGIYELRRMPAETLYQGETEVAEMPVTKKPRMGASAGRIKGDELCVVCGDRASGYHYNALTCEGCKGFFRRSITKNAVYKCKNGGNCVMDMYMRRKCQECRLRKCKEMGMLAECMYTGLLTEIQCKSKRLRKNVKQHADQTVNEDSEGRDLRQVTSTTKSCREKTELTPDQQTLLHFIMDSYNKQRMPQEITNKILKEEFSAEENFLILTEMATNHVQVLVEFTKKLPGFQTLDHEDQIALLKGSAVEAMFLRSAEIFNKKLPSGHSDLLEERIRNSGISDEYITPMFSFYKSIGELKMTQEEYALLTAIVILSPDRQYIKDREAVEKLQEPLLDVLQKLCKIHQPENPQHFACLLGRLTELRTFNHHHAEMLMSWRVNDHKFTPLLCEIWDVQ
Assay: FXR reporter assay (cellular FXR activities)
Assay type: cell-based
Settings: for EC50: FXR reporter cells, 24 hours incubation, luciferase, read-out: Reporter Cell EC50; for Emax: read-out: Emax (%) (GW4064 Emax = 100%)
Experimental: FXR reporter assay was performed to measure cellular FXR activities of the compounds in the present invention. FXR reporter cells with high expression level of human FXR were seeded into 96-well cell culture plates, and incubated for 1-2 hours at 37° C. under 5% CO2 atmosphere. The invented compounds diluted in DMSO with various concentrations were added to the 96-well cell culture plates, and they were incubated for 24 hours at 37° C. under 5% CO2 atmosphere. After incubation, we calculate EC50 by using luciferase substrate.

Row | SMILES | EC50 [nM] | Emax [%]
1 | O=C(O)c1ccc(C#Cc2ccc(OCc3c(-c4c(Cl)cccc4Cl)noc3C3CC3)cc2)cc1 [Compound I-1, 4-((4-((5-cyclopropyl-3-(2,6-dichlorophenyl)isoxazol-4-yl)methoxy)phenyl)ethynyl)benzoic acid] | > 1000 | > 100
2 | O=C(O)c1ccc(C#Cc2ccc(OCc3c(-c4c(Cl)cccc4Cl)noc3C3CC3)cc2C(F)(F)F)cc1 [Compound I-4, 4-((4 ((5-cyclopropyl-3-(2,6-dichlorophenyl)isoxazol-4-yl)methoxy)-2-(trifluoromethyl)phenyl)ethynyl)benzoic acid] | 60 to 200 | 91
3 | C#Cc1ccc(OCc2c(-c3c(Cl)cccc3Cl)noc2C2CC2)cc1Cl [Compound I-5, 4-((3-chloro-4-ethynylphenoxy)methyl)-5-cyclopropyl-3-(2,6-dichlorophenyl)isoxazole] | 200 to 1000 | 84
4 | COC(=O)c1cccc(C#Cc2ccc(OCc3c(-c4c(Cl)cccc4Cl)noc3C3CC3)cc2Cl)c1 [Compound I-7, methyl 3-((2-chloro-4-((5-cyclopropyl-3-(2,6-dichlorophenyl)isoxazol-4-yl)methoxy)phenyl)ethynyl)benzoate] | > 1000 | 85
5 | CCOC(=O)Nc1cc(C#Cc2ccc(OCc3c(-c4c(Cl)cccc4Cl)noc3C3CC3)cc2Cl)cc(C(=O)OC)c1 [Compound I-8, methyl 3-((2-chloro-4-((5-cyclopropyl-3-(2,6-dichlorophenyl)isoxazol-4-yl)methoxy)phenyl)ethynyl)-5-((ethoxycarbonyl)amino)benzoate] | > 1000 | 98
6 | CCOC(=O)Nc1cccc(C#Cc2ccc(OCc3c(-c4c(Cl)cccc4Cl)noc3C3CC3)cc2Cl)c1 [Compound I-11, ethyl (3-((2-chloro-4-((5-cyclopropyl-3-(2,6-dichlorophenyl)isoxazol-4-yl)methoxy)phenyl)ethynyl)phenyl)carbamate] | > 1000 | 90
7 | NS(=O)(=O)c1cccc(C#Cc2ccc(OCc3c(-c4c(Cl)cccc4Cl)noc3C3CC3)cc2Cl)c1 [Compound I-12, 3-((2-chloro-4-((5-cyclopropyl-3-(2,6-dichlorophenyl)isoxazol-4-yl)methoxy)phenyl)ethynyl)benzenesulfonamide] | 200 to 1000 | > 100
8 | CS(=O)(=O)Nc1cccc(C#Cc2ccc(OCc3c(-c4c(Cl)cccc4Cl)noc3C3CC3)cc2Cl)c1 [Compound I-13, N-(3-((2-chloro-4-((5-cyclopropyl-3-(2,6-dichlorophenyl)isoxazol-4-yl)methoxy)phenyl)ethynyl)phenyl)methanesulfonamide] | 200 to 1000 | 90
9 | NS(=O)(=O)Nc1cccc(C#Cc2ccc(OCc3c(-c4c(Cl)cccc4Cl)noc3C3CC3)cc2Cl)c1 [Compound I-14, N-(3-((2-chloro-4-((5-cyclopropyl-3-(2,6-dichlorophenyl)isoxazol-4-yl)methoxy)phenyl)ethynyl)phenyl)sulfamide] | 200 to 1000 | 96
10 | O=C(O)c1ccc(C#Cc2ccc(OCc3c(-c4c(Cl)cccc4Cl)noc3C3CC3)cc2Cl)nc1 [Compound I-17, 6-((2-chloro-4-((5-cyclopropyl-3-(2,6-dichlorophenyl)isoxazol-4-yl)methoxy)phenyl)ethynyl)nicotinic acid] | 200 to 1000 | 89
11 | O=C(O)c1ccnc(C#Cc2ccc(OCc3c(-c4c(Cl)cccc4Cl)noc3C3CC3)cc2Cl)c1 [Compound I-18, 2-((2-chloro-4-((5-cyclopropyl-3-(2,6-dichlorophenyl)isoxazol-4-yl)methoxy)phenyl)ethynyl)isonicotinic acid] | 200 to 1000 | 87
12 | O=C(O)c1cccc(C#Cc2ccc(OCc3c(-c4c(Cl)cccc4Cl)noc3C3CC3)cc2Cl)n1 [Compound I-19, 6-((2-chloro-4-((5-cyclopropyl-3-(2,6-dichlorophenyl)isoxazol-4-yl)methoxy)phenyl)ethynyl)picolinic acid] | ≤ 20 | 99
13 | CN(C)c1cc(C(=O)O)ccc1C#Cc1ccc(OCc2c(-c3c(Cl)cccc3Cl)noc2C2CC2)cc1Cl [Compound I-22, 4-((2-chloro-4-((5-cyclopropyl-3-(2,6-dichlorophenyl)isoxazol-4-yl)methoxy)phenyl)ethynyl)-3-(dimethylamino)benzoic acid] | 60 to 200 | 93
14 | CN(C)c1cc(C#Cc2ccc(OCc3c(-c4c(Cl)cccc4Cl)noc3C3CC3)cc2Cl)ccc1C(=O)O [Compound I-23, 4-((2-chloro-4-((5-cyclopropyl-3-(2,6-dichlorophenyl)isoxazol-4-yl)methoxy)phenyl)ethynyl)-2-(dimethylamino)benzoic acid] | 60 to 200 | > 100
15 | CCN(CC)c1cc(C#Cc2ccc(OCc3c(-c4c(Cl)cccc4Cl)noc3C3CC3)cc2Cl)cc(C(=O)O)c1 [Compound I-24, 3-((2-chloro-4-((5-cyclopropyl-3-(2,6-dichlorophenyl)isoxazol-4-yl)methoxy)phenyl)ethynyl)-5-(diethylamino)benzoic acid] | 20 to 60 | > 100

Second part, the molecule after the results:

Row | EC50 [nM] | Emax [%] | SMILES
16 | 200 to 1000 | > 100 | CN(C)c1ccc(C(=O)O)cc1C#Cc1ccc(OCc2c(-c3c(Cl)cccc3Cl)noc2C2CC2)cc1Cl [Compound I-26, 3-((2-chloro-4-((5-cyclopropyl-3-(2,6-dichlorophenyl)isoxazol-4-yl)methoxy)phenyl)ethynyl)-4-(dimethylamino)benzoic acid]
17 | 20 to 60 | 91 | O=C(O)c1cc(Cl)cc(C#Cc2ccc(OCc3c(-c4c(Cl)cccc4Cl)noc3C3CC3)cc2Cl)c1 [Compound I-27, 3-chloro-5-((2-chloro-4-((5-cyclopropyl-3-(2,6-dichlorophenyl)isoxazol-4-yl)methoxy)phenyl)ethynyl)benzoic acid]
18 | 60 to 200 | 93 | O=C(O)c1cc(C#Cc2ccc(OCc3c(-c4c(Cl)cccc4Cl)noc3C3CC3)cc2Cl)ccc1Cl [Compound I-29, 2-chloro-5-((2-chloro-4-((5-cyclopropyl-3-(2,6-dichlorophenyl)isoxazol-4-yl)methoxy)phenyl)ethynyl)benzoic acid]
19 | 20 to 60 | > 100 | O=C(O)c1cc(C#Cc2ccc(OCc3c(-c4c(Cl)cccc4Cl)noc3C3CC3)cc2Cl)cc(C(F)(F)F)c1 [Compound I-31, 3-((2-chloro-4-((5-cyclopropyl-3-(2,6-dichlorophenyl)isoxazol-4-yl)methoxy)phenyl)ethynyl)-5-(trifluoromethyl)benzoic acid]
20 | 60 to 200 | 94 | C#Cc1cc(C#Cc2ccc(OCc3c(-c4c(Cl)cccc4Cl)noc3C3CC3)cc2Cl)cc(C(=O)O)c1 [Compound I-32, 3-((2-chloro-4-((5-cyclopropyl-3-(2,6-dichlorophenyl)isoxazol-4-yl)methoxy)phenyl)ethynyl)-5-ethynylbenzoic acid]
21 | 60 to 200 | 99 | N#Cc1cc(C#Cc2ccc(OCc3c(-c4c(Cl)cccc4Cl)noc3C3CC3)cc2Cl)cc(C(=O)O)c1 [Compound I-33, 3-((2-chloro-4-((5-cyclopropyl-3-(2,6-dichlorophenyl)isoxazol-4-yl)methoxy)phenyl)ethynyl)-5-cyanobenzoic acid]
22 | 60 to 200 | 100 | O=C(O)c1cccc(C#Cc2c(Cl)cc(OCc3c(-c4c(Cl)cccc4Cl)noc3C3CC3)cc2Cl)c1 [Compound I-34, 3-((2,6-dichloro-4-((5-cyclopropyl-3-(2,6-dichlorophenyl)isoxazol-4-yl)methoxy)phenyl)ethynyl)benzoic acid]
23 | 200 to 1000 | 86 | O=C(O)c1cccc(C#Cc2ccc(OCc3c(-c4c(Cl)cccc4Cl)noc3C3CC3)cc2Cl)c1Cl [Compound I-35, 2-chloro-3-((2-chloro-4-((5-cyclopropyl-3-(2,6-dichlorophenyl)isoxazol-4-yl)methoxy)phenyl)ethynyl)benzoic acid]
24 | 60 to 200 | 93 | O=C(O)c1cccc(C#Cc2ccc(OCc3c(-c4c(Cl)cccc4Cl)noc3C3CC3)cc2Cl)c1F [Compound I-36, 3-((2-chloro-4-((5-cyclopropyl-3-(2,6-dichlorophenyl)isoxazol-4-yl)methoxy)phenyl)ethynyl)-2-fluorobenzoic acid]
25 | 60 to 200 | 94 | O=C(O)c1cc(C#Cc2ccc(OCc3c(-c4c(Cl)cccc4Cl)noc3C3CC3)cc2Cl)ccc1F [Compound I-37, 5-((2-chloro-4-((5-cyclopropyl-3-(2,6-dichlorophenyl)isoxazol-4-yl)methoxy)phenyl)ethynyl)-2-fluorobenzoic acid]
26 | 200 to 1000 | 85 | O=C(O)c1cc(C#Cc2ccc(OCc3c(-c4c(Cl)cccc4Cl)noc3C3CC3)cc2Cl)cc(OC(F)(F)F)c1 [Compound I-39, 3-((2-chloro-4-((5-cyclopropyl-3-(2,6-dichlorophenyl)isoxazol-4-yl)methoxy)phenyl)ethynyl)-5-(trifluoromethoxy)benzoic acid]

From patent US10988449B2, “Isoxazole derivatives as nuclear receptor agonists and uses thereof” (IL DONG PHARMACEUTICAL CO., LTD., priority 2017, dated 2021)
